Test results published in US6890942B2, “Acyl sulfonamides as inhibitors of HIV integrase” (Bristol-Myers Squibb Company, priority 2003, dated 2005).

Biological target: T1, HIV-integrase (Human immunodeficiency virus type 1 group M subtype B, UniProt P04585)
T1 construct: 0.26 ng of recombinant integrase was incubated with the beads
Test: HIV-Integrase Inhibition Activity (SPA bead strand-transfer assay)
Assay type: biochemical
Conditions: 10 μM compound; recombinant integrase
Description: For each reaction, 5 pmole of biotin labeled substrate DNA was bound to 100 ug of Streptavidin coated PVT SPA beads (Amersham Pharmacia Biotech). 0.26 ng of recombinant integrase was incubated with the beads for 90 min at 37 C. Unbound enzyme was removed by washing the complex followed by addition of inhibitors and 0.1 fmol of P33 labeled target DNA. Reaction was stopped by adding EDTA to a final concentration of 10 mM. Samples were counted in TopCountNXT (Packard) and the CPM was used as a measure of integration. Reaction condition was as described in A. Engelman and R. Craigie, J. Virol. 69, 5908-5911 (1995). The sequences of substrate and target DNA were described in Nucleic Acid Research 22, 1121-1122 (1994). Compounds of this invention tested in this assay have IC50's of approximately 0.01 to 25 μM.

Point of comparison: `CON(Cc1ccc(F)cc1)C(=O)/C=C(\O)C(=O)NS(=O)(=O)c1c(C)noc1C` [Example 8, 4-(3,5-Dimethyl-isoxazole-4-sulfonylamino)-3-hydroxy-4-oxo-but-2-enoic acid (4-fluoro-benzyl)-methoxy-amide], inhibition at 10 µM 99%. Against it:
- CON(Cc1ccc(F)cc1)C(=O)/C=C(\O)C(=O)NS(=O)(=O)c1ccc(C)cc1 [Example 1, 3-Hydroxy-4-oxo-4-(toluene-4-sulfonylamino)-but-2-enoic acid (4-fluoro-benzyl)-methoxy-amide] — the same, 99%
- CON(Cc1ccc(F)cc1)C(=O)/C=C(\O)C(=O)NS(C)(=O)=O [Example 2, 3-Hydroxy-4-methanesulfonylamino-4-oxo-but-2-enoic acid (4-fluoro-benzyl)-methoxy-amide] — the same, 99%
- CON(Cc1ccc(F)cc1)C(=O)/C=C(\O)C(=O)NS(=O)(=O)c1nnc(NC(C)=O)s1 [Example 3, 4-(5-Acetylamino-[1,3,4]thiadiazole-2-sulfonylamino)-3-hydroxy-4-oxo-but-2-enoic acid (4-fluoro-benzyl)-methoxy-amide] — the same, 99%
- CON(Cc1ccc(F)cc1)C(=O)/C=C(\O)C(=O)NS(=O)(=O)CC1CCC1 [Example 4, 4-Cyclobutylmethanesulfonylamino-3-hydroxy4-oxo-but-2-enoic acid (4-fluoro-benzyl)-methoxy-amide] — the same, 99%
- CON(Cc1ccc(F)cc1)C(=O)/C=C(\O)C(=O)NS(=O)(=O)C1CCCCC1 [Example 5, 4-Cyclohexanesulfonylamino-3-hydroxy-4-oxo-but-2-enoic acid (4-fluoro-benzyl)-methoxy-amide] — the same, 99%
- CON(Cc1ccc(F)cc1)C(=O)/C=C(\O)C(=O)NS(=O)(=O)C1CCCC1 [Example 6, 4-Cyclopentanesulfonylamino-3-hydroxy-4-oxo-but-2-enoic acid (4-fluoro-benzyl)-methoxy-amide] — the same, 99%
- CON(Cc1ccc(F)cc1)C(=O)/C=C(\O)C(=O)NS(=O)(=O)C1CC1 [Example 7, 4-Cyclopropanesulfonylamino-3-hydroxy-4-oxo-but-2-enoic acid (4-fluoro-benzyl)-methoxy-amide] — the same, 99%
- CON(Cc1ccc(F)cc1)C(=O)/C=C(\O)C(=O)NS(=O)(=O)c1cccc(C)n1 [Example 9, 3-Hydroxy-4-(6-methyl-pyridine-2-sulfonylamino)-4-oxo-but-2-enoic acid (4-fluoro-benzyl)-methoxy-amide] — lower, 94%
- CON(Cc1ccc(F)cc1)C(=O)/C=C(\O)C(=O)NS(=O)(=O)c1ccc(Cl)s1 [Example 10, 4-(5-Chloro-thiophene-2-sulfonylamino)-3-hydroxy-4-oxo-but-2-enoic acid (4-fluoro-benzyl)-methoxy-amide] — lower, 95%
- CON(Cc1ccc(F)cc1)C(=O)/C=C(\O)C(=O)NS(=O)(=O)c1ccc(NC(C)=O)cc1 [Example 11, 4-(4-Acetylamino-benzenesulfonylamino)-3-hydroxy-4-oxo-but-2-enoic acid (4-fluoro-benzyl)-methoxy-amide] — the same, 99%
- CCOc1ccc2nc(S(=O)(=O)NC(=O)C(O)=CC(=O)N(Cc3ccc(F)cc3)OC)sc2c1 [Example 12, 4-(6-Ethoxy-benzothiazole-2-sulfonylamino)-3-hydroxy-4-oxo-but-2-enoic acid (4-fluoro-benzyl)-methoxy-amide] — the same, 99%
- CON(Cc1ccc(F)cc1)C(=O)/C=C(\O)C(=O)NS(=O)(=O)c1sc(C)nc1C [Example 13, 4-(2,4-Dimethyl-thiazole-5-sulfonylamino)-3-hydroxy-4-oxo-but-2-enoic acid (4-fluoro-benzyl)-methoxy-amide] — lower, 98%
- CON(Cc1ccc(F)cc1)C(=O)/C=C(\O)C(=O)NS(=O)(=O)c1cn(C)cn1 [Example 14, 3-Hydroxy-4-(1-methyl-1H-imidazole-4-sulfonylamino)-4-oxo-but-2-enoic acid (4-fluoro-benzyl)-methoxy-amide] — lower, 93%
- CCN1CCCC1CNC(=O)c1cc(S(=O)(=O)NC(=O)/C(O)=C/C(=O)N(Cc2ccc(F)cc2)OC)ccc1OC (stereo not shown) [Example 15, N-(1-Ethyl-pyrrolidin-2-ylmethyl)-5-[3-[(4-fluoro-benzyl)-methoxy-carbamoyl]-2-hydroxy-acryloylsulfamoyl]-2-methoxy-benzamide] — lower, 93%
- CON(Cc1ccc(F)cc1)C(=O)/C=C(\O)C(=O)NS(=O)(=O)C1CCS(=O)(=O)C1 (stereo not shown) [Example 16, 4-(1,1-Dioxo-tetrahydro-1×6-thiophene-3-sulfonylamino)-3-hydroxy-4-oxo-but-2-enoic acid (4-fluoro-benzyl)-methoxy-amide] — lower, 98%
- CON(Cc1ccc(F)cc1)C(=O)/C=C(\O)C(=O)NS(=O)(=O)c1ccc(-c2cc(C(F)(F)F)n(C)n2)s1 [Example 17, 3-Hydroxy-4-[5-(1-methyl-5-trifluoromethyl-1H-pyrazol-3-yl)-thiophene-2-sulfonylamino]-4-oxo-but-2-enoic acid (4-fluoro-benzyl)-methoxy-amide] — the same, 99%
- CCCC1(S(=O)(=O)NC(=O)/C(O)=C/C(=O)N(Cc2ccc(F)cc2)OC)CC1 [Example 18, 3-Hydroxy-4-oxo-4-(1-propyl-cyclopropanesulfonylamino)-but-2-enoic acid (4-fluoro-benzyl)-methoxy-amide] — the same, 99%
- CON(Cc1ccc(F)cc1)C(=O)/C=C(\O)C(=O)NS(=O)(=O)C1(CC2CC2)CC1 [Example 19, 4-(1-Cyclopropylmethyl-cyclopropanesulfonylamino)-3-hydroxy-4-oxo-but-2-enoic acid (4-fluoro-benzyl)-methoxy-amide] — the same, 99%
- CON(Cc1ccc(F)cc1)C(=O)/C=C(\O)C(=O)NS(=O)(=O)C1(Cc2ccccc2)CC1 [Example 20, 4-(1-Benzyl-cyclopropanesulfonylamino)-3-hydroxy-4-oxo-but-2-enoic acid (4-fluoro-benzyl)-methoxy-amide] — the same, 99%
- CON(Cc1ccc(C(=O)O)cc1)C(=O)/C=C(\O)C(=O)NS(C)(=O)=O [Example 21, 4-{[(3-Hydroxy-4-methanesulfonylamino-4-oxo-but-2-enoyl)-methoxy-amino]-methyl}-benzoic acid] — lower, 30%
- CON(Cc1ccc(F)c(C)c1)C(=O)/C=C(\O)C(=O)NS(C)(=O)=O [Example 22, 3-Hydroxy-4-methanesulfonylamino-4-oxo-but-2-enoic acid (4-fluoro-3-methyl-benzyl)-methoxy-amide] — the same, 99%
- CON(Cc1ccccc1OC(C)C)C(=O)/C=C(\O)C(=O)NS(C)(=O)=O [Example 23, 3-Hydroxy-4-methanesulfonylamino-4-oxo-but-2-enoic acid (2-isopropoxy-benzyl)-methoxy-amide] — the same, 99%
- CON(Cc1ccc(C(=O)OC(C)(C)C)cc1)C(=O)/C=C(\O)C(=O)NS(C)(=O)=O [Example 24, 4-{[(3-Hydroxy-4-methanesulfonylamino-4-oxo-but-2-enoyl)-methoxy-amino]-methyl}-benzoic acid tert-butyl ester] — lower, 15%
- CON(Cc1ccc(C)c(F)c1)C(=O)/C=C(\O)C(=O)NS(C)(=O)=O [Example 25, 3-Hydroxy-4-methanesulfonylamino-4-oxo-but-2-enoic acid (3-fluoro-4-methyl-benzyl)-methoxy-amide] — the same, 99%
- CON(C(=O)/C=C(\O)C(=O)NS(C)(=O)=O)C(C)c1ccc(F)cc1 (stereo not shown) [Example 26, 3-Hydroxy-4-methanesulfonylamino-4-oxo-but-2-enoic acid[1-(4-fluoro-phenyl)-ethyl]-methoxy-amide] — the same, 99%
- CON(C(=O)/C=C(\O)C(=O)NS(C)(=O)=O)C(c1ccc(F)cc1)c1ccc(F)cc1 [Example 27, 3-Hydroxy-4-methanesulfonylamino-4-oxo-but-2-enoic acid [bis-(4-fluoro-phenyl)-methyl]-methoxy-amide] — lower, 60%
- CON(Cc1ccc(F)cc1Cl)C(=O)/C=C(\O)C(=O)NS(C)(=O)=O [Example 28, 3-Hydroxy-4-methanesulfonylamino-4-oxo-but-2-enoic acid (2-chloro-4-fluoro-benzyl)-methoxy-amide] — the same, 99%
- CN(C(=O)/C=C(\O)C(=O)NS(C)(=O)=O)C(Cc1ccc(Cl)cc1)Cc1ccc(Cl)cc1 [Example 29, 3-Hydroxy-4-methanesulfonylamino-4-oxo-but-2-enoic acid [1-(4-chloro-benzyl)-2-(4-chloro-phenyl)-ethyl]-methyl-amide] — lower, 86%
- CON(CCCc1ccc(F)cc1)C(=O)/C=C(\O)C(=O)NS(C)(=O)=O [Example 30, 3-Hydroxy-4-methanesulfonylamino-4-oxo-but-2-enoic acid [3-(4-fluoro-phenyl)-propyl]-methoxy-amide] — lower, 98%

System: not given
Test: not given
Conditions: not given

In the case of `CON(Cc1ccc(F)cc1)C(=O)/C=C(\O)C(=O)NS(C)(=O)=O` [Example 2, 3-Hydroxy-4-methanesulfonylamino-4-oxo-but-2-enoic acid (4-fluoro-benzyl)-methoxy-amide], the melting point is reported as 137 °C (dec.).
For `CON(Cc1ccc(F)c(C)c1)C(=O)/C=C(\O)C(=O)NS(C)(=O)=O` [Example 22, 3-Hydroxy-4-methanesulfonylamino-4-oxo-but-2-enoic acid (4-fluoro-3-methyl-benzyl)-methoxy-amide], the melting point was 138 °C (dec.).
In the case of `CON(Cc1ccc(F)cc1Cl)C(=O)/C=C(\O)C(=O)NS(C)(=O)=O` [Example 28, 3-Hydroxy-4-methanesulfonylamino-4-oxo-but-2-enoic acid (2-chloro-4-fluoro-benzyl)-methoxy-amide], the melting point is reported as 144 °C (dec.).

In the case of `CON(Cc1ccc(C(=O)O)cc1)C(=O)/C=C(\O)C(=O)NS(C)(=O)=O` [Example 21, 4-{[(3-Hydroxy-4-methanesulfonylamino-4-oxo-but-2-enoyl)-methoxy-amino]-methyl}-benzoic acid], the melting point is reported as 119 to 124 °C.
